Source: PMC10574761, “Novel 1,2,3-Triazole-Containing Quinoline–Benzimidazole Hybrids: Synthesis, Antiproliferative Activity, In Silico ADME Predictions, and Docking” (Molecules, 2023)

Experiments:
[1] = tested on: THP-1 (acute monocytic leukemia); assay: MTT proliferation assay, THP-1; type: cell-based, human; settings: Homo sapiens, THP-1; 72 h treatment, MTT
Method: (§1) The effect of the new synthesized compounds was tested on five human tumor cell lines, HeLa (human cervical adenocarcinoma; from ATCC), CaCo-2 (human colorectal adenocarcinoma), HL-60 (acute promyelocytic leukemia), HuT78 (T-cell lymphoma) and THP-1 (acute monocytic leukemia), and on one non-tumor cell line, MRC-5 (human fetal lung fibroblasts). The MRC-5 cells were used between 24 and 26 passages. The cells were cultured in two different types of media: DMEM (Gibco, EU) and RPMI 1640 (Gibco, EU). Both media were supplemented with 2 mM glutamine, fetal bovine serum (10%; heat inactivated) and antibiotics (100 U penicillin and 0.1 mg streptomycin). RPMI 1640 was additionally supplemented with 10 mM HEPES and 1 mM sodium pyruvate. The cells growing in a monolayer were cultured in DMEM, while the cells growing in suspension were cultured in RPMI 1640. The cells were grown in humidified atmosphere under the conditions of 37 °C/5% CO2 gas in the CO2 incubator (IGO 150 CELLlife^TM, JOUAN, Thermo Fisher Scientific, Waltham, MA, USA).
(§2) Growth-inhibitory activity was assessed using a slightly modified procedure based on the National Cancer Institute’s protocol. Briefly, the cells were seeded in 96-well microtiter plates and incubated for 24 h. They were then treated with 10^−7 to 10^−4 M concentrations of the tested compounds for an additional 72 h. After the treatment period, the effects of the tested compounds on the growth rate of the cells were examined using the MTT assay. Absorbance was measured at 595 nm using a microplate reader. […] The selectivity index was calculated according to the following formula: SI=IC50 value of normal cell line/IC50 value of cancer cell line
(§3) The effect of each concentration was analyzed by plotting the logarithm of the concentration of the evaluated compound against the corresponding percentage inhibition value using least squares.

[2] = tested on: HeLa (human cervical adenocarcinoma); assay: MTT proliferation assay, HeLa; type: cell-based; settings: 72 h treatment
Method: as §1, §2, §3

[3] = tested on: MRC-5 (human fetal lung fibroblasts, non-tumor); assay: MTT proliferation assay, MRC-5; type: cell-based; settings: MRC5, 72 h treatment
Method: as §1, §2, §3

[4] = tested on: CaCo-2 (human colorectal adenocarcinoma); assay: MTT proliferation assay, CaCo-2; type: cell-based; settings: 72 h treatment
Method: as §1, §2, §3

Hut78 (T-cell lymphoma) = assay: MTT proliferation assay, HuT78; type: cell-based, human; settings: Homo sapiens, HuT78; 72 h treatment, MTT
Method: as §1, §2, §3

[5] = tested on: HL-60 (acute promyelocytic leukemia); assay: MTT proliferation assay, HL-60; type: cell-based; settings: Homo sapiens, 72 h treatment
Method: as §1, §2, §3

Row | Compound | IC50 [1] [µM] | IC50 [2] [µM] | IC50 [3] [µM] | IC50 [4] [µM] | IC50 (Hut78 (T-cell lymphoma)) [µM] | melting point [°C] | IC50 [5] [µM]
1 | CCCNC(=N)c1ccc2[nH]c(-c3ccc(OCc4cn(-c5ccnc6cc(Cl)ccc56)nn4)cc3)nc2c1.Cl.Cl.Cl [Compound 9e, 2-(4-{[1-(7-chloroquinolin-4-yl)-1H-1,2,3-triazol-4-yl]methoxy}phenyl)-N-propyl-1H-benzo[d]imidazol-5-carboximidamide trihydrochloride] | > 100 | > 100 | > 100 | > 100 | 10.2 | 228 to 230 | 98.3
2 | Clc1ccc2[nH]c(-c3ccc(OCc4cn(CCNc5ccnc6cc(Cl)ccc56)nn4)cc3)nc2c1 [Compound 14b, 7-chloro-N-[2-(4-{[4-(5-chloro-1H-benzo[d]imidazol-2-yl)phenoxy]methyl}-1H-1,2,3-triazol-1-yl)ethyl]quinolin-4-amine] | > 100 | > 100 | > 100 | > 100 | > 100 | 213 to 215 | > 100
3 | Cl.Cl.Cl.N=C(N)c1ccc2[nH]c(-c3ccc(OCc4cn(-c5ccnc6cc(Cl)ccc56)nn4)c(Br)c3)nc2c1 [Compound 10d, 2-(3-bromo-4-{[1-(7-chloroquinolin-4-yl)-1H-1,2,3-triazol-4-yl]methoxy}phenyl)-1H-benzo[d]imidazol-5-carboximidamide trihydrochloride] | > 100 | > 100 | > 100 | > 100 | > 100 | 200 to 202 | > 100
4 | Clc1ccc2c(-n3cc(COc4ccc(-c5nc6ccccc6[nH]5)cc4Br)nn3)ccnc2c1 [Compound 10a, 4-(4-{[4-(1H-benzo[d]imidazol-2-yl)-2-bromophenoxy]methyl}-1H-1,2,3-triazol-1-yl)-7-chloroquinoline] | 9.6 | 10 | 52.1 | 63.8 | 5.88 | 252 to 254 | 76.1
5 | Clc1ccc2c(NCCn3cc(COc4ccc(-c5nc6ccccc6[nH]5)cc4)nn3)ccnc2c1 [Compound 14a, N-[2-(4-{[4-(1H-benzo[d]midazole-2-yl)phenoxy]methyl}-1H-1,2,3-triazol-1-yl)ethyl]-7-chloroquinolin-4-amine] | > 100 | > 100 | > 100 | > 100 | > 100 | 221 to 223 | > 100
6 | COc1ccc2[nH]c(-c3ccc(OCc4cn(CCNc5ccnc6cc(Cl)ccc56)nn4)c(Br)c3)nc2c1 [Compound 15c, N-[2-(4-{[2-bromo-4-(5-methoxy-1H-benzo[d]imidazol-2-yl)phenoxy]methyl}-1H-1,2,3-triazol-1-yl)ethyl]-7-chloroquinolin-4-amine] | 1.65 | > 100 | > 100 | > 100 | 3.98 | 92 to 94 | 2.62
7 | Cl.Cl.Cl.N=C(N)c1ccc2[nH]c(-c3ccc(OCc4cn(CCNc5ccnc6cc(Cl)ccc56)nn4)c(Br)c3)nc2c1 [Compound 15d, 2-{3-bromo-4-[(1-{2-[(7-chloroquinolin-4-yl)amino]ethyl}-1H-1,2,3-triazol-4-yl)methoxy]phenyl}-1H-benzo[d]imidazol-5-carboximidamide trihydrochloride] | > 100 | > 100 | > 100 | > 100 | > 100 | 215 to 217 | > 100
8 | Clc1ccc2[nH]c(-c3ccc(OCc4cn(CCNc5ccnc6cc(Cl)ccc56)nn4)c(Br)c3)nc2c1 [Compound 15b, N-[2-(4-{[2-bromo-4-(5-chloro-1H-benzo[d]imidazol-2-yl)phenoxy]methyl}-1H-1,2,3-triazol-1-yl)ethyl]-7-chloroquinolin-4-amine] | 2.06 | > 100 | > 100 | > 100 | 4.91 | 100 to 102 | 1.24
9 | Cl.Cl.Cl.N=C(N)c1ccc2[nH]c(-c3ccc(OCc4cn(-c5ccnc6cc(Cl)ccc56)nn4)cc3)nc2c1 [Compound 9d, 2-(4-{[1-(7-chloroquinolin-4-yl)-1H-1,2,3-triazol-4-yl]methoxy}phenyl)-1H-benzo[d]imidazol-5-carboximidamide trihydrochloride] | > 100 | > 100 | > 100 | > 100 | 2.52 | 240 to 242 | > 100
10 | Clc1ccc2[nH]c(-c3ccc(OCc4cn(-c5ccnc6cc(Cl)ccc56)nn4)c(Br)c3)nc2c1 [Compound 10b, 4-(4-{[2-bromo-4-(5-chloro-1H-benzo[d]imidazol-2-yl)phenoxy]methyl}-1H-1,2,3-triazol-1-yl)-7-chloroquinoline] | 10.6 | 8.11 | > 100 | 10.9 | 6.43 | – | 55.2
11 | COc1ccc2[nH]c(-c3ccc(OCc4cn(CCNc5ccnc6cc(Cl)ccc56)nn4)cc3)nc2c1 [Compound 14c, 7-chloro-N-[2-(4-{[4-(5-methoxy-1H-benzo[d]imidazol-2-yl)phenoxy]methyl}-1H-1,2,3-triazol-1-yl)ethyl]quinolin-4-amine] | 7.31 | > 100 | > 100 | > 100 | > 100 | 150 to 152 | > 100
12 | O=c1[nH]cc(F)c(=O)[nH]1 [Compound 5-FU, 5-fluorouracil, reference compound] | 76.4 | – | 54.1 | – | > 100 | – | > 100
13 | Clc1ccc2[nH]c(-c3ccc(OCc4cn(-c5ccnc6cc(Cl)ccc56)nn4)cc3)nc2c1 [Compound 9b, 7-chloro-4-(4-{[4-(5-chloro-1H-benzo[d]imidazol-2-yl)phenoxy]methyl}-1H-1,2,3-triazol-1-yl)quinoline] | > 100 | 94.1 | 100 | > 100 | 92.9 ± 4.3 | 168 to 170 | > 100
14 | Clc1ccc2c(NCCn3cc(COc4ccc(-c5nc6ccccc6[nH]5)cc4Br)nn3)ccnc2c1 [Compound 15a, N-[2-(4-{[4-(1H-benzo[d]imidazol-2-yl)-2-bromophenoxy]methyl}-1H-1,2,3-triazol-1-yl)ethyl]-7-chloroquinolin-4-amine] | 4.66 | > 100 | > 100 | > 100 | 7.88 | 155 to 157 | 11.6
15 | COc1ccc2[nH]c(-c3ccc(OCc4cn(-c5ccnc6cc(Cl)ccc56)nn4)c(Br)c3)nc2c1 [Compound 10c, 4-(4-{[2-bromo-4-(5-methoxy-1H-benzo[d]imidazol-2-yl)phenoxy]methyl}-1H-1,2,3-triazol-1-yl)-7-chloroquinoline] | 6.23 | 9.86 | 8.54 | 9.92 | 3.89 | 170 to 172 | 18.2
16 | Clc1ccc2c(-n3cc(COc4ccc(-c5nc6ccccc6[nH]5)cc4)nn3)ccnc2c1 [Compound 9a, 4-(4-{[4-(1H-benzo[d]imidazol-2-yl)phenoxy]methyl}-1H-1,2,3-triazol-1-yl)-7-chloroquinoline] | > 100 | > 100 | > 100 | > 100 | 100 | 143 to 145 | > 100
17 | Cl.Cl.Cl.N=C(N)c1ccc2[nH]c(-c3ccc(OCc4cn(CCNc5ccnc6cc(Cl)ccc56)nn4)cc3)nc2c1 [Compound 14d, 2-{4-[(1-{2-[(7-chloroquinolin-4-yl)amino]ethyl}-1H-1,2,3-triazol-4-yl)methoxy]phenyl}-1H-benzo[d]imidazol-5-carboximidamide trihydrochloride] | > 100 | > 100 | > 100 | > 100 | 10.5 | 227 to 229 | > 100
